Measurements published in patent publication US4883797A, “Derivatives of piperazine, method for making the same” (Ferrer Internacional, S.A., priority 1982, dated 1989).

Experiments:
mice [1] = test: Antiarrhythmic activity, method of Ferrini et al, endovenous administration to mice; type: in vivo; conditions: for ED50: Mus musculus, iv, read-out: Antiarrythmic activity ED50
Source text: Antiarrhythmic activity (Parameter 1) has been determined according to the method of Ferrini et al (Arzn.-Forsch., 29 (II), 9a, 1947-77, 1979).

cerebral flow = test: Cerebral flow change by electromagnetic flowmetry, anesthetized dogs; type: in vivo; conditions: endovenous, 5 mg/kg, variation over mean values before testing
Procedure: (§1) Both parameters have been measured by electromagnetic flowmetry (Narcomatic-Electromagnetic flowmeter) on 12 anesthetized dogs. The hemodynamic parameter average of animals before testing were pO2 =95.40±3.98; pCO2 =34.31.congruent.2.38 and pH-7.297±0.315 by endovenously administering the compounds of a 5 mg/kg dosis.

mean arterial pressure = test: Decrease in mean arterial pressure (hypotension), anesthetized rats, endovenous; type: in vivo; conditions: for ED50: Rattus norvegicus, iv
Source text: (§2) The decrease in arterial pressure (Parameter 2) and the effects on heart rate (Parameter 3) have been evaluated according to the usual conventional methods used in Cardiovascular Pharmacology.

[2] = system: cerebral vascular resistance; test: Cerebral vascular resistance determined simultaneously with cerebral and carotid flows, anesthetized dogs; type: in vivo; conditions: endovenous, 5 mg/kg, variation over mean values before testing
Procedure: (§3) The measurements of cerebral and carotid flow changes (parameters 4 and 5) have been made using the most sophisticated methods. Both parameters have been measured by electromagnetic flowmetry (Narcomatic-Electromagnetic flowmeter) on 12 anesthetized dogs. The hemodynamic parameter average of animals before testing were pO2 =95.40±3.98; pCO2 =34.31.congruent.2.38 and pH-7.297±0.315 by endovenously administering the compounds of a 5 mg/kg dosis.
(§4) Simultaneously with the measuring of cerebral and carotid flows, the mean arterial pressure and cerebral vascular resistance (parameters 6,7) in each animal was determined. These parameters were measured according to the conventional method in Cardiovascular Pharmacology and the values were tabulated as the variation rate (Increase or Decrease) over mean values before testing.

mice [3] = conditions: endovenous
heart rate = test: Effect on heart rate (bradycardia), anesthetized rats, endovenous; type: in vivo; conditions: for ED50: Rattus norvegicus, iv
Source text: as §2

carotid flow = test: Carotid flow change by electromagnetic flowmetry, anesthetized dogs; type: in vivo; conditions: endovenous, 5 mg/kg, variation over mean values before testing
Procedure: as §1

arterial pressure = test: Mean arterial pressure determined simultaneously with cerebral and carotid flows, anesthetized dogs; type: in vivo; conditions: endovenous, 5 mg/kg, variation over mean values before testing
Procedure: as §3, §4

in vivo = conditions: mouse, iv

| SMILES | Antiarrythmic activity ED50 (mice [1]) | Cerebral flow Increase (cerebral flow) | Mean arterial pressure, Hypotension ED50 (mean arterial pressure) | Cerebral vascular resistance Decrease [2] | Acute toxicity LD50 (mice [3]) | Heart rate, Bradycardia ED50 (heart rate) | Carotid flow Decrease (carotid flow) | Arterial pressure Decrease (arterial pressure) | ED50 (mice [1]) | ED50 (mean arterial pressure) | LD50 (in vivo) | ED50 (heart rate) |
| --- | --- | --- | --- | --- | --- | --- | --- | --- | --- | --- | --- | --- |
| C=CCN1CCN(C(c2ccccc2)c2ccccc2)CC1 [Aligeron 2HCI, reference compound] | 4.4 mg/kg | 64.0% | 1.3 mg/kg | 61.0% | 38.5 ± 1.06 mg/kg | 4.8 mg/kg | 21.3% | 36.0% | – | – | – | – |
| C(=C\c1ccccc1)/CN1CCN(C(c2ccccc2)c2ccccc2)CC1 [Cinnarizine 2HCI, reference compound] | – | 76.7% | – | 68.0% | – | – | 62.8% | 43.0% | – | – | – | – |
| Cl.Cl.c1ccc(C(c2ccccc2)N2CCN(CC3CC3)CC2)cc1 [Compound 1, 1-Benzhydryl-4-cyclopropylmethyl-piperazine dihydrochloride] | – | 55.0% | – | 55.0% | – | – | 68.0% | 30.0% | 4.2 mg/kg | 2.7 mg/kg | 25.6 ± 4.39 mg/kg | 3.4 mg/kg |
| C=C(CN1CCCCC1)CN1CCN(C(c2ccccc2)c2ccccc2)CC1 [Compound 6, 1-Benzhydryl-4-(2-(1-piperidinylmethyl)-2-propenyl)piperazine] | – | 70.0% | – | 75.3% | – | – | 22.0% | 58.0% | 4.3 mg/kg | 1.5 mg/kg | 8.6 ± 0.54 mg/kg | 1.7 mg/kg |
| CCOC(=O)C=CCN1CCN(C(c2ccccc2)c2ccccc2)CC1 [Compound 7] | – | 32.0% | – | 44.7% | – | – | 13.0% | 27.3% | 23 mg/kg | 2.1 mg/kg | 100 ± 6.27 mg/kg | 3.8 mg/kg |
| O=C(CCCN1CCN(C(c2ccccc2)c2ccccc2)CC1)c1ccccc1 [Compound 11] | – | 81.0% | – | 74.0% | – | – | 40.9% | 50.0% | 6.9 mg/kg | 0.43 mg/kg | 21 ± 1.72 mg/kg | 2.1 mg/kg |
| c1ccc(C(c2ccccc2)N2CCN(CCCC3(c4ccccc4)OCCO3)CC2)cc1 [Compound 13] | – | 140.1% | – | 73.1% | – | – | 25.7% | 35.0% | 4 mg/kg | 1.5 mg/kg | 42.5 ± 3.05 mg/kg | 2.6 mg/kg |
| O=C1NCC(CN2CCN(C(c3ccccc3)c3ccccc3)CC2)O1 (stereo not drawn) [Compound 15] | – | 38.5% | – | 60.3% | – | – | 60.0% | 45.5% | 16.5 mg/kg | 1.2 mg/kg | 40 ± 4.19 mg/kg | 3 mg/kg |
